# Assay results taken from US8450527B2, “Amine derivative compounds for treating ophthalmic diseases and disorders” (Acucela Inc., priority 2007, dated 2013).
# Molecular target: T1, visual cycle isomerase (Bos taurus, UniProt Q28175)
# T1 construct: Bovine Retinal Pigment Epithelium (RPE) microsome membranes were the source of a visual cycle isomerase; from tissue; host or cells: bovine retinal pigment epithelium microsome membranes; CRALBP made in E. coli
# T1 sequence (Q28175 2-533 limits assumed): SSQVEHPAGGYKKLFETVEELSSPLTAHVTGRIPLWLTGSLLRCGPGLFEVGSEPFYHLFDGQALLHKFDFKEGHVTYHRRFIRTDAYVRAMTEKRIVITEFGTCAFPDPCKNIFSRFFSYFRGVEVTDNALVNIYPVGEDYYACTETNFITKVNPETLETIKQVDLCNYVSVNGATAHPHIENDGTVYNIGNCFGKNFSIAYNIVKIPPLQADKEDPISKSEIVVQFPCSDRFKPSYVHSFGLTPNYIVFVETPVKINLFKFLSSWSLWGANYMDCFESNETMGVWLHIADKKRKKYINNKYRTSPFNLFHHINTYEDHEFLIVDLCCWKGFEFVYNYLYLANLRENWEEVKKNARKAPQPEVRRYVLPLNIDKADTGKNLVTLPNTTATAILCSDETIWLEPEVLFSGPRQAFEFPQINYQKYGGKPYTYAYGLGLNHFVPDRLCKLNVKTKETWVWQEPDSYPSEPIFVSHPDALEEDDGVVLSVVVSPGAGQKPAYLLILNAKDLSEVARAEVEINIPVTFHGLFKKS
# Experiment: In vitro isomerase inhibition assay, bovine RPE microsome membranes
# Format: biochemical
# Settings: inhibition of 11-cis retinol formation; values given as ranges
# Procedure: The capability of amine derivative compounds to inhibit the activity of a visual cycle isomerase was determined
# Isomerase inhibition reactions were performed essentially as described (Stecher et al., J. Biol. Chem. 274:8577-85 (1999); see also Golczak et al., Proc. Natl. Acad. Sci. USA 102:8162-67 (2005)). Bovine Retinal Pigment Epithelium (RPE) microsome membranes were the source of a visual cycle isomerase.
# Bovine RPE microsome membrane extracts were prepared according to methods described (Golczak et al., Proc. Natl. Acad. Sci. USA 102:8162-67 (2005)) and stored at −80° C. Crude RPE microsome extracts were thawed in a 37° C. water bath, and then immediately placed on ice. 50 ml crude RPE microsomes were placed into a 50 ml Teflon-glass homogenizer (Fisher Scientific, catalog no. 0841416M) on ice, powered by a hand-held DeWalt drill, and homogenized ten times upand down on ice under maximum speed. This process was repeated until the crude RPE microsome solution was homogenized. The homogenate was then subjected to centrifugation (50.2 Ti rotor (Beckman, Fullerton, Calif.), 13,000 RPM; 15360 Rcf) for 15 minutes at 4° C. The supernatant was collected and subjected to centrifugation at 42,000 RPM (160,000 Rcf; 50.2 Ti rotor) for 1 hour at 4° C. The supernatant was removed, and the pellets were suspended in 12 ml (final volume) cold 10 mM MOPS buffer, pH 7.0. The resuspended RPE membranes in 5 ml aliquots were homogenized in a glass-to-glass homogenizer (Fisher Scientific, catalog no.K885500-0021) to high homogeneity. Protein concentration was quantified using the BCA protein assay according to the manufacturer's protocol (Pierce, Rockford, Ill.). The homogenized RPE preparations were stored at −80° C.
# Recombinant human apo cellular retinaldehyde-binding protein (CRALBP) was cloned and expressed according to standard methods in the molecular biology art (see Crabb et al., Protein Science 7:746-57 (1998); Crabb et al., J. Biol. Chem. 263:18688-92 (1988)). Briefly, total RNA was prepared from confluent ARPE^19 cells (American Type Culture Collection, Manassas, Va.), cDNA was synthesized using an oligo(dT)12-18 primer, and then DNA encoding CRALBP was amplified by two sequential polymerase chain reactions (see Crabb et al., J. Biol. Chem. 263:18688-92 (1988); Intres, et al., J. Biol. Chem. 269:25411-18 (1994); GenBank Accession No. L34219.1). The PCR product was sub-cloned into pTrcHis2-TOPO TA vector according to the manufacturer's protocol (Invitrogen Inc., Carlsbad, Calif.; catalog no. K4400-01), and then the sequence was confirmed according to standard nucleotide sequencing techniques. Recombinant 6×His-tagged human CRALBP was expressed in One Shot TOP 10 chemically competent E. coli cells (Invitrogen), and the recombinant polypeptide was isolated from E. coli cell lysates by nickel affinity chromatography using nickel (Ni) Sepharose XK16-20 columns for HPLC (Amersham Bioscience, Pittsburgh, Pa.; catalog no.17-5268-O2). The purified 6×His-tagged human CRALBP was dialyzed against 10 mM bis-tris-Propane (BTP) and analyzed by SDS-PAGE. The molecular weight of the recombinant human CRALBP was approximately 39 kDal.
# Amine derivative compounds and control compounds were reconstituted in ethanol to 0.1 M. Ten-fold serial dilutions (10^−2, 10^−3, 10^−4, 10^−5, 10^−6 M) in ethanol of each compound were prepared for analysis in the isomerase assay.
# The isomerase assay was performed in 10 mM bis-tris-propane (BTP) buffer, pH 7.5, 0.5% BSA (diluted in BTP buffer), 1 mM sodium pyrophosphate, 20 μM all-trans retinol (in ethanol), and 6 μM apo-CRALBP. The test compounds (2 μl) (final 1/15 dilution of serial dilution stocks) were added to the above reaction mixture to which RPE microsomes were added. The same volume of ethanol was added to the control reaction (absence of test compound). Bovine RPE microsomes (9 μl) (see above) were then added, and the mixtures transferred to 37° C. to initiate the reaction (total volume=150 μl). […]
row,IC50 [µM],SMILES
1,1 to 10,"Cc1cccc(C)c1CCc1cccc(CCCN)c1 [Example 1, 3-(3-(2,6-dimethylphenethyl)phenyl)propan-1-amine]"

# Molecular target: T2, isomerase (Mus musculus, UniProt Q91ZQ5)
# T2 construct: The recovery of 11-cis-retinal after bleaching can be used to estimate the activity of isomerase in vivo; from tissue; host or cells: eye (RPE) of living CD-1 albino male mice
# T2 sequence (Q91ZQ5 1-533): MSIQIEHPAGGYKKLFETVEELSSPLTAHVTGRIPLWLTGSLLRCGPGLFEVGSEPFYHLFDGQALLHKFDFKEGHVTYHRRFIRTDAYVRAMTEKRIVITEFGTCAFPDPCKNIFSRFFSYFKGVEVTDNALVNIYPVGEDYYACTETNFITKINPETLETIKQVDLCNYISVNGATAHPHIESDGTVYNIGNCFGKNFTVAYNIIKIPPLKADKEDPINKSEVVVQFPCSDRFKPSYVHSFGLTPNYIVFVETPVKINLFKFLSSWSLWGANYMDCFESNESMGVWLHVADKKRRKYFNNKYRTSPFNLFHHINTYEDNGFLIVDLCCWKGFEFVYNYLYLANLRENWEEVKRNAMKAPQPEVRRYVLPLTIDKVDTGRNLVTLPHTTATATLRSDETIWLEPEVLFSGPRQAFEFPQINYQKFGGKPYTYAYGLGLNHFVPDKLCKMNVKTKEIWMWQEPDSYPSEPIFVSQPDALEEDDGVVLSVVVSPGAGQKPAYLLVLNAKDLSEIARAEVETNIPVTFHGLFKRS
# Experiment: In vivo murine isomerase assay (recovery of 11-cis-retinal after photobleaching)
# Set-up: species or system CD-1 (albino) male mice
# Settings: CD1 male mice, single oral dose 1 mg/kg, photobleaching 4 h post dosing
# Procedure: The capability of amine derivative compounds to inhibit isomerase was determined by an in vivo murine isomerase assay. Brief exposure of the eye to intense light (“photobleaching” of the visual pigment or simply “bleaching”) is known to photo-isomerize almost all 11-cis-retinal in the retina. The recovery of 11-cis-retinal after bleaching can be used to estimate the activity of isomerase in vivo.
# Delayed recovery, as represented by lower 11-cis-retinal oxime levels, indicates inhibition of isomerization reaction. Procedures were performed essentially as described by Golczak et al., Proc. Natl. Acad. Sci. USA 102:8162-67 (2005). See also Deigner et al., Science, 244: 968-71 (1989); Gollapalli et al., Biochim Biophys Acta. 1651: 93-101 (2003); Parish, et al., Proc. Natl. Acad. Sci. USA, 14609-13 (1998); Radu, et al., Proc Natl Acad Sci USA 101: 5928-33 (2004).
# […] Mice were orally gavaged with the several of the amine derivative compounds described herein. After 1-48 hours in the dark, the mice were exposed to photobleaching of 5,000 lux of white light for 10 minutes. The mice were allowed to recover 2 hours in the dark. The animals were then sacrificed by carbon dioxide inhalation. Retinoids were extracted from the eye and the regeneration of 11-cis-retinal was assessed at various time intervals.
# All steps were performed in darkness with minimal redlight illumination (low light darkroom lights and redfiltered flashlights for spot illumination as needed) (see, e.g., Maeda et al., J. Neurochem 85:944-956, 2003; Van Hooser et al., J Biol Chem 277:19173-82, 2002). After the mice were sacrificed, the eyes were immediately removed and placed in liquid nitrogen for storage.
# The eyes were placed in 500 μL of bis-tris propane buffer (10 mM, pH ˜7.3) and 20 μL of 0.8M hydroxylamine (pH˜7.3). The eyes were cut up into small pieces with small iris scissors and then thoroughly homogenized at 30000 rpm with a mechanical homogenizer (Polytron PT 1300 D) in the tube until no visible tissue remained. 500 μL of methanol and 500 μL of heptane were added to each tube. The tubes were attached to a vortexer so that the contents were mixed thoroughly for 15 minutes in room temperature. The organic phase was separated from the aqueous phase by centrifugation for 10 min at 13K rpm, 4° C. 240 μL of the solution from the top layer (organic phase) was removed and transferred to clean 300 μl glass inserts in HPLC vials using glass pipette and the vials were crimped shut tightly.
# The samples were analyzed on an Agilent 1100 HPLC system with normal phase column: SILICA (Beckman Coutlier, dp 5 μm, […]). The running method has a flow rate of 1.5 ml/min; solvent components are 15% solvent 1 (1% isopropanol in ethyl acetate), and 85% solvent 2 (100% hexanes). Loading volume for each sample is 100 μl; detection wavelength is 360 nm. The area under the curve for 11-cis retinal oxime was calculated by Agilent Chemstation software and was recorded manually. Data processing was performed using Prizm software.
# Positive control mice (no compound administered) were sacrificed fully dark-adapted and the eye retinoids analyzed. Light (bleached) control mice (no compound administered) were sacrificed and retinoids isolated and analyzed immediately after light treatment. The animals were orally gavaged with 1 mg/kg compound, then “photo-bleached” (5000 Lux white light for 10 minutes) at 4, 24 and 48 hours after dosing, and returned to darkness to allow recovery of the 11-cis-retinal content of the eyes. Mice were sacrificed 2 hours after bleaching, eyes were enucleated, and retinoid content was analyzed by HPLC.
# A dose response in vivo isomerase inhibition study was performed with several of the amine derivative compounds described herein. Six-week old dark-adapted CD-1 (albino) male mice were orally gavaged with 0.03, 0.1, 0.3, 1 and 3 mg/kg of compound in sterile water as solution, and photobleached 4 hours after dosing. […]
row,SMILES,% Inhibition 1 mg/kg 4 h [%]
1,"NCCC(O)c1cccc(CCc2ccccc2)c1 (stereo not shown) [Example 85, 3-amino-1-(3-phenethylphenyl)propan-1-ol]",70
2,"NCCOc1cccc(CCC2CCCCC2O)c1 (stereo not shown) [Example 99, 2-(3-(2-aminoethoxy)phenethyl)cyclohexanol]",22
3,"NCCC(O)c1cccc(CCC2CCCCO2)c1 (stereo not shown) [Example 110, 3-amino-1-(3-(2-(tetrahydro-2H-pyran-2-yl)ethyl)phenyl)propan-1-ol]",61
4,"NCC#Cc1cccc(CS(=O)(=O)C2CCCCC2)c1 [Example 157, 3-(3-(cyclohexylsulfonylmethyl)phenyl)prop-2-yn-1-amine]",0
5,"NCCOc1cccc(C(=O)NC2CCCCC2)c1 [Example 164, 3-(2-aminoethoxy)-N-cyclohexylbenzamide]",0
6,"NCCCc1cccc(CCC2CCCCC2O)c1 (stereo not shown) [Example 187, 2-(3-(3-aminopropyl)phenethyl)cyclohexanol]",9

# Results, then the compound that gave them:
row,% Inhibition 1 mg/kg 4 h [%],SMILES
1,14,"NCCC(O)c1cccc(CCCCCCO)c1 (stereo not shown) [Example 59, 6-(3-(3-amino-1-hydroxypropyl)phenyl)hexan-1-ol]"
2,100,"CCCC(O)(CCC)CCc1cccc([C@@H](O)CCN)c1 [Example 70, (S)-4-(3-(3-amino-1-hydroxypropyl)phenethyl)heptan-4-ol]"
3,67,"CCCC(O)(CCC)CCc1cccc([C@H](O)CCN)c1 [Example 71, (R)-4-(3-(3-Amino-1-hydroxypropyl)phenethyl)heptan-4-ol]"
4,84,"CC(C)CCCc1cccc(C(O)CCN)c1 (stereo not shown) [Example 90, 3-amino-1-(3-(4-methylpentyl)phenyl)propan-1-ol]"
5,9,"NCCC(O)c1cccc(CCC2CCCCC2O)c1 (stereo not shown) [Example 100, 2-(3-(3-amino-1-hydroxypropyl)phenethyl)cyclohexanol]"
6,79,"CCCC(C)(O)CCc1cccc(C(O)CCN)c1 (stereo not shown) [Example 109, 1-(3-(3-amino-1-hydroxypropyl)phenyl)-3-methylhexan-3-ol]"
7,87,"CCC(O)(CC)CCc1cccc(C(O)CCN)c1 (stereo not shown) [Example 113, 1-(3-(3-amino-1-hydroxypropyl)phenyl)-3-ethylpentan-3-ol]"
8,6,"CCCC(O)(CCC)CCc1cccc(SCCN)c1 [Example 134, 4-(3-(2-aminoethylthio)phenethyl)heptan-4-ol]"
9,87,"CCCC(O)(CCC)CCc1cc(C(O)CCN)ccc1F (stereo not shown) [Example 140, 4-(5-(3-amino-1-hydroxypropyl)-2-fluorophenethyl)heptan-4-ol]"
